For this experiment, the system named is HCT116. The conditions noted are these: 72 h. In short, it runs like this:
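HCT116 cells were plated at 250 per well in 1536-well plates and allowed 5 h to attach. CellTiter-Glo luminescence was normalized to vehicle as 0% and positive control as -100%, followed by pattern correction. Four-parameter Hill fits provided IC50 and maximal efficacy.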

Counter-ions that a name gives are not always drawn. Bounds are passed on as bounds.

This note sets out measurements from the supplement of paper PMC12137928.

Consider `CC(OC(=O)NCC1(CC(=O)O)CCCCC1)OC(=O)C(C)C` (stereo not drawn) [GABAPENTIN ENACARBIL], for which the IC50 cell viability was more than 45.8 µM (ICRF193 0 nM) and more than 45.8 µM (ICRF193 200 nM).

Regarding `CN[C@@H]1[C@@H](O)[C@@H](O[C@@H]2[C@@H](O)[C@H](O[C@H]3O[C@H](CN)CC[C@H]3N)[C@@H](N)C[C@H]2N)OC[C@]1(C)O.CN[C@@H]1[C@@H](O)[C@@H](O[C@@H]2[C@@H](O)[C@H](O[C@H]3O[C@H]([C@@H](C)N)CC[C@H]3N)[C@@H](N)C[C@H]2N)OC[C@]1(C)O.CN[C@@H]1[C@@H](O)[C@@H](O[C@@H]2[C@@H](O)[C@H](O[C@H]3O[C@H]([C@@H](C)NC)CC[C@H]3N)[C@@H](N)C[C@H]2N)OC[C@]1(C)O` [GENTAMICIN SULFATE], the IC50 cell viability is more than 45.8 µM (ICRF193 0 nM) and more than 45.8 µM (ICRF193 200 nM).

Regarding `CCCCCCCCCCCC(=O)OCC(O)CO` (stereo not drawn) [GLYCERYL LAURATE], the IC50 cell viability (ICRF193 0 nM) was more than 45.8 µM and the IC50 cell viability (ICRF193 200 nM) was more than 45.8 µM.

For the molecule `CC(C)OC(=O)[C@H](C)N[P@](=O)(CO[C@H](C)Cn1cnc2c(N)ncnc21)Oc1ccccc1` [GS-7340], the IC50 cell viability reads like this: (ICRF193 0 nM) more than 45.8 µM; (ICRF193 200 nM) more than 45.8 µM.

Take `NCC1(CC(=O)O)CCCCC1` [Gabapentin]: the IC50 cell viability is, setting by setting: (ICRF193 0 nM) more than 45.8 µM; (ICRF193 200 nM) more than 45.8 µM.

For the molecule `CCOC(=O)c1ccc(OC(=O)CCCCCNC(=N)N)cc1` [Gabexate mesilate], the IC50 cell viability is, setting by setting: (ICRF193 0 nM) more than 45.8 µM; (ICRF193 200 nM) more than 45.8 µM.

The molecule `COc1ccc2c3c1O[C@H]1C[C@@H](O)C=C[C@@]31CCN(C)C2` [Galanthamine] displayed an IC50 cell viability (ICRF193 0 nM) of more than 45.8 µM and an IC50 cell viability (ICRF193 200 nM) of more than 45.8 µM.

Take `O=C(O)c1cc(O)c(O)c(O)c1` [Gallic acid]: the IC50 cell viability (ICRF193 0 nM) was more than 45.8 µM and the IC50 cell viability (ICRF193 200 nM) was more than 45.8 µM.

`COc1ccc(CCN(C)CCCC(C#N)(c2cc(OC)c(OC)c(OC)c2)C(C)C)cc1OC` (stereo not drawn) [Gallopamil hydrochloride]: the IC50 cell viability is, setting by setting: (ICRF193 0 nM) more than 45.8 µM; (ICRF193 200 nM) more than 45.8 µM.

Take `CCCN1C[C@H](C)[C@@H](O)[C@](C)(O)[C@@H](CC)OC(=O)[C@H](C)[C@@H](O[C@H]2C[C@@](C)(OC)[C@@H](O)[C@H](C)O2)[C@H](C)[C@@H](O[C@@H]2O[C@H](C)C[C@H](N(C)C)[C@H]2O)[C@](C)(O)C[C@H]1C` [Gamithromycin]: the IC50 cell viability by setting is: (ICRF193 0 nM) more than 45.8 µM; (ICRF193 200 nM) more than 45.8 µM.

Consider `CCCCC/C=C\C/C=C\C/C=C\CCCCC(=O)O` [Gamolenic acid], for which the IC50 cell viability runs as follows: (ICRF193 0 nM) more than 45.8 µM; (ICRF193 200 nM) more than 45.8 µM.

Regarding `Nc1nc2c(ncn2COC(CO)CO)c(=O)[nH]1` [Ganciclovir], the IC50 cell viability is more than 45.8 µM (ICRF193 0 nM) and more than 45.8 µM (ICRF193 200 nM).

Take `C[C@H]1NCc2cc(-c3ccc4c(=O)c(C(=O)O)cn(C5CC5)c4c3OC(F)F)ccc21` [Garenoxacin mesylate hydrate]: the IC50 cell viability was more than 45.8 µM (ICRF193 0 nM) and more than 45.8 µM (ICRF193 200 nM).

`COc1c(N2CCNC(C)C2)c(F)cc2c(=O)c(C(=O)O)cn(C3CC3)c12` (stereo not drawn) [Gatifloxacin]: the IC50 cell viability is, setting by setting: (ICRF193 0 nM) more than 45.8 µM; (ICRF193 200 nM) more than 45.8 µM.

With `CC(C)=CCC/C(C)=C/CC/C(C)=C/CCC(=O)OC/C=C(\C)CCC=C(C)C` [Gefarnate], the IC50 cell viability was more than 45.8 µM (ICRF193 0 nM) and more than 45.8 µM (ICRF193 200 nM).

As for `Cc1ccc(C)c(OCCCC(C)(C)C(=O)O)c1` [Gemfibrozil], the IC50 cell viability (ICRF193 0 nM) is more than 45.8 µM and the IC50 cell viability (ICRF193 200 nM) was more than 45.8 µM.

Regarding `CO/N=C1\CN(c2nc3c(cc2F)c(=O)c(C(=O)O)cn3C2CC2)CC1CN` (stereo not drawn) [Gemifloxacin mesylate], the IC50 cell viability was more than 45.8 µM (ICRF193 0 nM) and more than 45.8 µM (ICRF193 200 nM).

For `CC(C)=CCC/C(C)=C/CO` [Geraniol], the IC50 cell viability is more than 45.8 µM (ICRF193 0 nM) and more than 45.8 µM (ICRF193 200 nM).

As for `C#C[C@]1(O)C=C[C@H]2[C@@H]3CCC4=CC(=O)CC[C@@H]4[C@H]3CC[C@@]21CC` [Gestodene], the IC50 cell viability reads like this: (ICRF193 0 nM) more than 45.8 µM; (ICRF193 200 nM) more than 45.8 µM.
